Measurements reported in patent US7250489B2, “Purified linear polypeptide epitope from walnuts and associated methods” (priority 2001, dated 2007).
No end group written: not given here.

Legend:
Design in all cases: species or system human
[1] = test system: IgE of walnut-allergic patients' sera; assay: IgE binding to solid phase synthetic peptides (SPOTs analysis); details: for number of patients' sera positive for the peptide: 20 individual patients' sera
Text: The study was approved by the Human Subjects Review Committee at the University of California, Davis. Sera from 20 walnut-allergic patients with a convincing history of life-threatening systemic allergic reactions to walnuts, positive ImmunoCAP assays (Pharmacia, Inc., Diagnostics, Columbus, Ohio), and evidence of IgE against rJug r 1 (see below) were used in this study. Control sera were obtained from atopic patients with no history of walnut sensitivity, and one patient with life-threatening reactions to walnuts, positive ImmunoCAP assay, positive serum IgE immunoblot to walnut proteins, but negative for binding to the 2S albumin.
Based on the published amino acid sequence of Jug r 1 and our unpublished data determining the subunit cleavage sites,^6 twenty-five 13-amino acid peptides, offset by three amino acids, were synthesized which corresponded to the entire 64-amino acid length of the large subunit (FIG. 1A) and 26-amino acid length of the small subunit (FIG. 1B). Additional peptides bearing the target epitope (QGLRGEEMEEMV), SEQ ID NO:1, mutated forms of this peptide, and a non-IgE binding peptide (LSQRGLQSSSV), SEQ ID NO:6, were also synthesized. […] versions of the target peptide were created via a single site alanine substitution at each position along the amino acid sequence, and six mutated peptides were synthesized using multiple alanine substitutions, as shown in FIG. 6.
Peptides were synthesized on derivatized cellulose sheets using 9-fluorenlymethoxy carbonyl-derived (Fmoc) amino acids as described by the manufacturer (Genosys Biotechnologies, Inc., The Woodlands, Tex.). Briefly, cellulose membranes containing free hydroxy groups were esterfied with an Fmoc-amino acid dissolved in 1-methyl-2 pyrrolidione. The coupling reaction was followed by washing in N,N-dimethylformamide (DMF) and the amino acids were acetylated with acetic anhydride. The membranes were deprotected by washing in DMF and incubation with a solution of 20% piperidine in DMF followed by another wash in DMF. Coupling, acetylation, and deprotection steps were repeated for each cycle. During the final cycle, a mixture of dichloromethane, trifluoroacetic acid, and triisobutylsilane (1:1:0.05) was used to deprotect the acid-labile amino acid side chains.
(§1) The peptide-containing membranes were washed in TBS and incubated o/n at RT in blocking solution as directed by the manufacturer (Genosys Biotechnologies, Inc., The Woodlands, Tex.). Membranes were then washed in TBS-T for 10 min and incubated o/n at 4° C. with individual patient's serum or pooled patients' sera diluted 1:5 in blocking buffer (total sera:blocking buffer). This incubation was followed by three 5-min washes in TBS-T and an o/n (4° C.) incubation with ^125I-anti-human IgE (Hycor Biomedical Inc., Garden Grove, Calif.) diluted 1:10 in a mixture of PBS, 5% nonfat dry milk, and 0.05% Tween-20. Three final 10 min washes in PBS/0.05% Tween-20 were performed and IgE-peptide reactivity identified after a 48 hr exposure at −70° C. to Kodak Biomax x-ray film.

[2] = test system: E1-specific IgE of patients' sera; assay: Inhibition by soluble epitope peptide of IgE binding to solid-phase E1 peptide
Method: as §1
A soluble form of an identified IgE-reactive peptide is (QGLRGEEMEEMV) was synthesized by Fmoc protocols on an automated peptide synthesizer (Model 433A, Applied Biosystems, Foster City, Calif.).
(§2) To test the specificity and reactivity of the epitope-specific IgE, control, pooled and fractionated patients' sera were pre-incubated o/n at 4° C. with different amounts (70, 7.0, and 0.7 μg) of the soluble epitope peptide, or a soluble non-specific peptide. […] Detection of IgE binding to the solid-phase synthetic peptides and dot-blotted rJug r 1 was detected using ^125I-anti-human IgE and ECL+, respectively, as described earlier.

[3] = test system: patient serum IgE binding to rJug r 1; assay: Inhibition by soluble epitope peptide of IgE binding to dot-blotted rJug r 1
Method: For dot-blot assays, a graphite pencil was used to circumscribe 4 mm×8 mm elipses on a dry 0.4 μm NC membrane (Shleicher & Schuell; Keen, N.H.). The NC was incubated in distilled-deionized water (ddH2O) on a rocking table for 5 min and allowed to air dry before each dot was loaded with 0.11 μg of rJug r 1 in 2 μl of ddH2O. The antigen-loaded NC was then rinsed in ddH2O as described above, placed protein side up on 3MM paper (Whatman Intl. Ltd., Maidstone, England), and dried under a 60-watt light until all moisture was removed. […]
as §2

[4] = of the 20 patients tested, FIG. 4

| inhibition of IgE binding to rJug r 1, eluate (E1 epitope-specific) IgE fractions ([3]; 70 μg soluble peptide, affinity column purified IgE fractions) | inhibition of binding of IgE to the intact rJug r 1 ([3]; patients' IgE, soluble peptide) | Sequence | number of patients' sera positive for the peptide [1] | number of patients exhibiting moderate recognition of the epitope peptide [1, 4] | number of patients exhibiting strong recognition of the epitope peptide [1, 4] | number of patients exhibiting weak recognition of the epitope peptide [1, 4] | number of patients showing no recognition of the epitope peptide [1, 4] | inhibition of binding of E1-specific IgE to the solid phase epitope ([2]; 70 μg soluble peptide) | inhibition of IgE binding to solid-phase E1 peptide ([2]; 70, 7.0, 0.7 μg peptide pre-incubated with whole patients' sera, FIG. 5C) |
| --- | --- | --- | --- | --- | --- | --- | --- | --- | --- |
| Inhibition was again observed | did not completely inhibit | QGLRGEEMEEMV (not fully specified; listed as Juglans regia) [E1, solid-phase and soluble forms] | 15 | six | five | four | five | completely inhibit | Partial to complete inhibition |
|  |  | LSQRSQQQCRQ [(−) peptide, reference compound] | none |  |  |  |  |  |  |
